Patent publication USRE47689E1, “Compounds for treating spinal muscular atrophy” (PTC Therapeutics, Inc., priority 2011, dated 2019)
Where two headings read alike, the source gives them in different places.

How the values were obtained:
Smn protein = Smn protein assay in cultured cells (SMN HTRF); format: cell-based, human; settings: 48 hours; for maximum fold (Fold) increase of Smn protein: SMA patient fibroblast cells, 7-point concentration data, fold increase relative to vehicle control (SMN HTRF); for EC1.5x (concentration giving 1.5-fold Smn protein increase): SMA Type 1 patient fibroblast cells (GM03813), 7-point concentration curve, SMN HTRF, concentration producing 1.5 times Smn protein vs DMSO vehicle control, read-out: EC1.5x for Smn protein expression
Outline: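 Lysates in RIPA with protease inhibitors are incubated overnight at room temperature with HTRF anti-SMN antibodies. EC1.5x is derived from fold increase in ΔF over vehicle.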

[1] = tested on: SMN2 minigene (full length SMN2 minigene mRNA containing SMN2 exon 7); test: SMN2 minigene mRNA splicing RT-qPCR assay in cultured cells; format: cell-based, human; settings: Homo sapiens, HEK293-H, read-out: EC1.5x for production of full length SMN2 mRNA
Outline: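 Read-out: full-length (exon 7-included) SMN2 minigene mRNA by multiplex RT-qPCR with GAPDH, efficiency-corrected (1+E)^−Ct, GAPDH-normalized and divided by vehicle. Stably transfected HEK293H cells, 24 h compound exposure, duplicates per concentration. Value is EC1.5x, reported as star ranges.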

[2] = HEK293H cells stably transfected with SMN2-A minigene, 24 hours, 7-point concentration curve, 1.5-fold relative to vehicle-treated cells

SMILES | melting point | maximum fold (Fold) increase of Smn protein (Smn protein) | EC (1.5-fold) ([1]; 24 h) [µM] | EC (1.5-fold) [1, 2] [µM] | EC1.5x (concentration giving 1.5-fold Smn protein increase) (Smn protein) [nM]
O=c1oc2cc(N3CCNCC3)ccc2cc1-c1ccncc1F [Compound 126, 3-(3-fluoropyridin-4-yl)-7-(piperazin-1-yl)-2H-chromen-2-one] | 202 to 204 °C | * (maximum fold increase of ≤1.2) | 3 to 30 | – | –
Cl.O=c1oc2cc(OC3CCNCC3)ccc2cc1-c1cn2cccnc2n1 [Compound 197, 3-(imidazo[1,2-a]pyrimidin-2-yl)-7-(piperidin-4-yloxy)-2H-chromen-2-one hydrochloride] | > 310 °C | ** (fold increase between >1.2 and ≤1.35) | – | 0.3 to 1 | –
Cc1cn2cc(-c3cc4ccc(CCCN5CCOCC5)cc4oc3=O)nc2c(C)n1 [Compound 884, 3-(6,8-dimethylimidazo[1,2-a]pyrazin-2-yl)-7-[3-(morpholin-4-yl)propyl]-2H-chromen-2-one] | 168 to 172 °C | ***** (fold increase >1.65) | – | < 0.1 | < 300
Cc1cn2cc(-c3cc4ccc(CCCNCc5ccccc5)cc4oc3=O)nc2c(C)n1 [Cpd 933, 7-[3-(benzylamino)propyl]-3-(6,8-dimethylimidazo[1,2-a]pyrazin-2-yl)-2H-chromen-2-one] | 143 to 147 °C | * (maximum fold increase of ≤1.2) | – | < 0.1 | –
Cc1ccn2cc(-c3cc4ccc(N5CCN6CCC5CC6)cc4oc3=O)nc2c1 [Compound 521, 7-(1,4-diazabicyclo[3.2.2]non-4-yl)-3-(7-methylimidazo[1,2-a]pyridin-2-yl)-2H-chromen-2-one] | 216 to 223 °C | ** (fold increase between >1.2 and ≤1.35) | 0.3 to 1 | – | –
C[C@H]1CN(c2ccc3cc(-c4ccccn4)c(=O)oc3c2)CCN1 [Compound 444, 7-[(3S)-3-methylpiperazin-1-yl]-3-(pyridin-2-yl)-2H-chromen-2-one] | 145 to 147 °C | * (maximum fold increase of ≤1.2) | 3 to 30 | – | –
Cc1cn2cc(-c3cc4ccc(C5CCN(C6COC6)CC5)cc4oc3=O)nc2c(C)n1 [Compound 855, 3-(6,8-dimethylimidazo[1,2-a]pyrazin-2-yl)-7-[1-(oxetan-3-yl)piperidin-4-yl]-2H-chromen-2-one] | 217 to 223 °C | ***** (fold increase >1.65) | – | < 0.1 | < 300
Cc1cc(C)c2nc(-c3cc4ccc(N5C[C@@H](C)N[C@@H](C)C5)cc4oc3=O)cn2c1 [Compound 262, 3-(6,8-dimethylimidazo[1,2-a]pyridin-2-yl)-7-[(3R,5S)-3,5-dimethylpiperazin-1-yl]-2H-chromen-2-one] | 227 to 237 °C | ** (fold increase between >1.2 and ≤1.35) | – | 0.3 to 1 | –
CN(C)Cc1ccc2cc(-c3nc4ccccc4[nH]3)c(=O)oc2c1 [Compound 396, 3-(1H-benzimidazol-2-yl)-7-[(dimethylamino)methyl]-2H-chromen-2-one] | 214 to 218 °C | ** (fold increase between >1.2 and ≤1.35) | – | 1 to 3 | –
Cc1cn2cc(-c3cc4ccc(CCCCN5CCNCC5)cc4oc3=O)nc2c(C)n1 [Compound 905, 3-(6,8-dimethylimidazo[1,2-a]pyrazin-2-yl)-7-[4-(piperazin-1-yl)butyl]-2H-chromen-2-one] | 187 to 191 °C | **** (fold increase between >1.5 and ≤1.65) | – | 1 to 3 | 1000 to 3000
C[C@@H]1CN(c2ccc3cc(-c4cn5ccccc5n4)c(=O)oc3c2)C[C@H](C)N1 [Compound 139, 7-[(3R,5S)-3,5-dimethylpiperazin-1-yl]-3-(imidazo[1,2-a]pyridin-2-yl)-2H-chromen-2-one] | 261 °C (dec.) | *** (fold increase between >1.35 and ≤1.5) | – | 1 to 3 | –
Cc1cn2cc(-c3cc4ccc(N5CC[C@H]6CN(C)C[C@H]65)cc4oc3=O)nc2c(C)n1 [Compound 689, 3-(6,8-dimethylimidazo[1,2-a]pyrazin-2-yl)-7-[(3aS,6aS)-5-methylhexahydropyrrolo[3,4-b]pyrrol-1(2H)-yl]-2H-chromen-2-one] | 241 to 248 °C | *** (fold increase between >1.35 and ≤1.5) | – | 0.3 to 1 | –
Cc1nccn2cc(-c3cc4ccc(N5CCN6CCC[C@H]6C5)cc4oc3=O)cc12 [Compound 642, 7-[(8aS)-hexahydropyrrolo[1,2-a]pyrazin-2(1H)-yl]-3-(1-methylpyrrolo[1,2-a]pyrazin-7-yl)-2H-chromen-2-one] | 175 to 178 °C | ** (fold increase between >1.2 and ≤1.35) | – | < 0.1 | –
Cc1nc(Cl)cn2cc(-c3cc4ccc(N5CCN(C)[C@H](C)C5)cc4oc3=O)nc12 [Compound 726, 3-(6-chloro-8-methylimidazo[1,2-a]pyrazin-2-yl)-7-[(3R)-3,4-dimethylpiperazin-1-yl]-2H-chromen-2-one] | 250 to 252 °C | **** (fold increase between >1.5 and ≤1.65) | – | < 0.1 | 300 to 1000
Cc1cn2cc(-c3cc4ccc(OCCN(CCO)CCO)cc4oc3=O)nc2c(C)n1 [Compound 896, 7-{2-[bis(2-hydroxyethyl)amino]ethoxy}-3-(6,8-dimethylimidazo[1,2-a]pyrazin-2-yl)-2H-chromen-2-one] | 199 to 202 °C | ***** (fold increase >1.65) | – | < 0.1 | < 300

More lines, main results first:

melting point | SMILES | maximum fold (Fold) increase of Smn protein (Smn protein) | EC (1.5-fold) ([1]; 24 h) [µM] | EC (1.5-fold) [1, 2] [µM] | EC1.5x (concentration giving 1.5-fold Smn protein increase) (Smn protein) [nM]
252 to 260 °C | C[C@@H]1CN(c2ccc3cc(-c4cn5ccc(C(F)(F)F)cc5n4)c(=O)oc3c2)CCN1 [Compound 267, 7-[(3R)-3-methylpiperazin-1-yl]-3-[7-(trifluoromethyl)imidazo[1,2-a]pyridin-2-yl]-2H-chromen-2-one] | * (maximum fold increase of ≤1.2) | – | 1 to 3 | –
230 to 236 °C | C[C@H]1CN(c2ccc3cc(-c4cn5cc(F)cnc5n4)c(=O)oc3c2)CCN1 [Compound 492, 3-(6-fluoroimidazo[1,2-a]pyrimidin-2-yl)-7-[(3S)-3-methylpiperazin-1-yl]-2H-chromen-2-one] | * (maximum fold increase of ≤1.2) | – | 1 to 3 | –
228 to 231 °C | Cc1ccn2nc(-c3cc4ccc(N5CCNCC5)cc4oc3=O)cc2c1 [Compound 302, 3-(5-methylpyrazolo[1,5-a]pyridin-2-yl)-7-(piperazin-1-yl)-2H-chromen-2-one] | *** (fold increase between >1.35 and ≤1.5) | – | 0.1 to 0.3 | 300 to 1000
218 to 220 °C | Cc1ccc2nc(-c3cc4ccc(N5CCCNCC5)cc4oc3=O)cn2c1 [Compound 176, 7-(1,4-diazepan-1-yl)-3-(6-methylimidazo[1,2-a]pyridin-2-yl)-2H-chromen-2-one] | * (maximum fold increase of ≤1.2) | – | 1 to 3 | –
123 to 126 °C | COc1ccc(-c2cc3ccc(N4CCN[C@H](C)C4)cc3oc2=O)cc1 [Compound 448, 3-(4-methoxyphenyl)-7-[(3R)-3-methylpiperazin-1-yl]-2H-chromen-2-one] | * (maximum fold increase of ≤1.2) | – | 1 to 3 | –
205 to 208 °C | CCN1CCN(c2ccc3cc(-c4cn5cc(C)sc5n4)c(=O)oc3c2)CC1 [Compound 151, 7-(4-ethylpiperazin-1-yl)-3-(2-methylimidazo[2,1-b][1,3]thiazol-6-yl)-2H-chromen-2-one] | * (maximum fold increase of ≤1.2) | – | 3 to 30 | –
184 to 186 °C | C[C@H]1CN(c2ccc3cc(-c4cn5cccc(Cl)c5n4)c(=O)oc3c2)CCN1C [Compound 339, 3-(8-chloroimidazo[1,2-a]pyridin-2-yl)-7-[(3S)-3,4-dimethylpiperazin-1-yl]-2H-chromen-2-one] | * (maximum fold increase of ≤1.2) | – | 0.1 to 0.3 | –
285 to 287 °C | C[C@@H]1CN(c2ccc3cc(-c4cn5cccnc5n4)c(=O)oc3c2)CCN1 [Compound 169, 3-(imidazo[1,2-a]pyrimidin-2-yl)-7-[(3R)-3-methylpiperazin-1-yl]-2H-chromen-2-one] | *** (fold increase between >1.35 and ≤1.5) | – | 0.3 to 1 | 1000 to 3000
296 to 306 °C | Cc1cc(F)c2nc(-c3cc4ccc(N5CCN6CCC[C@@H]6C5)cc4oc3=O)cn2c1 [Compound 611, 3-(8-fluoro-6-methylimidazo[1,2-a]pyridin-2-yl)-7-[(8aR)-hexahydropyrrolo[1,2-a]pyrazin-2(1H)-yl]-2H-chromen-2-one] | **** (fold increase between >1.5 and ≤1.65) | – | 0.3 to 1 | 1000 to 3000
